# What was measured:
# [1] = system: CHP134; assay: CHP134 CellTiter-Glo (CTG) Assay; type: cell-based; conditions: Homo sapiens, CHP-134, 120 h; viable cells by CellTiter-Glo after 5 days
# Protocol: […] cells (DSMZ-German Collection of Microorganisms and Cell Cultures, Braunschweig Germany) were cultured in RPMI 1640 supplemented with 10% fetal bovine serum, penicillin (100 U/ml), 1% L-Glutamine and streptomycin ([…]). Cells were seeded (200 cells/well) in 384-well plates for 16 hours. On day two, nine serial 1:3 compound dilutions were made in DMSO in a 96-well plate. The compounds were then further diluted into growth media using a BRAVO robot (Agilent, Santa Clara, CA). The diluted compounds were then added to quadruplicate wells in the 384-well cell plate and incubated at 37° C. and 5% CO2. After 5 days, relative numbers of viable cells were measured by luminescence using CellTiter-Glo® (Promega) according to the manufacturer's instructions and read on a SPARK Multimode Microplate Reader (Tecan, Mannedorf Switzerland). The IC50 calculations for the values reported in Table 2 were carried out using Prism 6.0 software (GraphPad, San Diego).
# [2] = target: T1, human recombinant PLK4 (Homo sapiens, UniProt O00444); assay: PLK4 Biochemical Assay (ADP-Glo); conditions: 0.5 nM PLK4, 8.0 μM ATP, 4.7 μM MBP, 6 hours at RT
# T1 construct: purchased ThermoFisher PV6396
# T1 sequence (O00444 1-970): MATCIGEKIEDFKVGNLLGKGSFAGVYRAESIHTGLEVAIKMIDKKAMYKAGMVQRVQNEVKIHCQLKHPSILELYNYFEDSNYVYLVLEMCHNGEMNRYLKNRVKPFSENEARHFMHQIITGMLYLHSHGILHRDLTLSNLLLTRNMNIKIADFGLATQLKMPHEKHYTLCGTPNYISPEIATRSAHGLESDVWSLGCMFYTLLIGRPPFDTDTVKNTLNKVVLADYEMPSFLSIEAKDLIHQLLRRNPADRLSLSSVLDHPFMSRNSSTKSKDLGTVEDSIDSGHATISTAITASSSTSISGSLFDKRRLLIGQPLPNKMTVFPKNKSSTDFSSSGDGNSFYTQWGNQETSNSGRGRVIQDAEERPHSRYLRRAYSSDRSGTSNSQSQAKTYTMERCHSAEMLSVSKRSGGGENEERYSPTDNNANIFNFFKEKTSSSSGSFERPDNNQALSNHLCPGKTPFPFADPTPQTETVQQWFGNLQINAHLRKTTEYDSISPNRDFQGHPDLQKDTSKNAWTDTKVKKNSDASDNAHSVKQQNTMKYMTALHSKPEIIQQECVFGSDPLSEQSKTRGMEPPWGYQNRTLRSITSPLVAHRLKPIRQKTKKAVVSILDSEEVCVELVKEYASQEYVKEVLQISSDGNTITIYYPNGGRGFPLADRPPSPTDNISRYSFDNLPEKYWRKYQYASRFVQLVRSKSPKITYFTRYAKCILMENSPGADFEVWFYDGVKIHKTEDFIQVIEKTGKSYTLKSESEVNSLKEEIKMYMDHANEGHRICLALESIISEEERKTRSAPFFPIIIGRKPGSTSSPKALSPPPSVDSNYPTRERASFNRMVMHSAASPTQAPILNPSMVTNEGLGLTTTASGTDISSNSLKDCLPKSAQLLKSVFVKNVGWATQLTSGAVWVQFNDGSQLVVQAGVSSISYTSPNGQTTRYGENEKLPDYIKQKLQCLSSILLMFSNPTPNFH
# Protocol: Activity of human recombinant PLK4 (ThermoFisher, cat #PV6396) was measured by quantification of adenosine diphosphate (ADP) using the ADP-Glo Kinase Assay Kit (Promega, cat #V9102). […] 5 μL of 1.0 nM PLK4 protein in assay buffer (50 mM HEPES, pH 7.5, 0.01% Brij-35, 0.01% BSA, 10 mM MgCl2, 1 mM EGTA, 1 mM DTT) was added to the plates. Test compounds and PLK4 were incubated for 15 minutes at room temperature (RT). […] Reactions were stopped and the remaining ATP depleted by adding 10 μL of ADP-Glo reagent (Promega, cat #V912B) and incubating for 40 minutes at RT. The simultaneous conversion of the remaining ADP to ATP and measurement of the newly synthesized ATP was achieved by addition of 20 μL Kinase Detection reagent (Promega, cat #V914B), incubation for 30 min at RT, and luminescence detection using the EnVision plate reader (PerkinElmer). […] The IC50 values reported in Table 2 were determined using four parameter non-linear regression curve fit.
SMILES,IC50 [2],IC50 [1]
"COc1ccc2c(c1)[C@]1(C[C@H]1c1ccc3c(Nc4cc5c(cc4OC)S(=O)(=O)CC5)n[nH]c3c1)C(=O)N2 [Example 1, 6-methoxy-5-({6-[(1R,2S)-5′-methoxy-2′-oxo-1′,2′-dihydrospiro[cyclopropane-1,3′-indol]-2-yl]-1H-indazol-3-yl}amino)-2,3-dihydro-1H-1-benzothiophene-1,1-dione]",0.797 nM,242 nM
"COc1ccc2c(c1)[C@]1(C[C@H]1c1ccc3c(Nc4ccc(S(C)(=O)=O)cc4OC)n[nH]c3c1)C(=O)N2 [Example 2, (1R,2S)-2-{3-[4-(methanesulfonyl)-2-methoxyanilino]-1H-indazol-6-yl}-5′-methoxyspiro[cyclopropane-1,3′-indol]-2′(1′H)-one]",0.576 nM,88.9 nM
"COc1ccc2c(c1)[C@]1(C[C@H]1c1ccc3c(Nc4nc(-c5ncco5)ccc4OC)n[nH]c3c1)C(=O)N2 [Example 4, (1R,2S)-5′-methoxy-2-(3-{[3-methoxy-6-(1,3-oxazol-2-yl)pyridin-2-yl]amino}-1H-indazol-6-yl)spiro[cyclopropane-1,3′-indol]-2′(1′H)-one]",0.682 nM,53.1 nM
"CCS(=O)(=O)c1ccc(Nc2n[nH]c3cc([C@@H]4C[C@@]45C(=O)Nc4ccc(OC)cc45)ccc23)c(OC)c1 [Example 5, (1R,2S)-2-{3-[4-(ethanesulfonyl)-2-methoxyanilino]-1H-indazol-6-yl}-5′-methoxyspiro[cyclopropane-1,3′-indol]-2′(1′H)-one]",0.708 nM,39.1 nM
"COc1ccc2c(c1)[C@]1(C[C@H]1c1ccc3c(Nc4cc5c(cc4OC)S(=O)(=O)C=C5)n[nH]c3c1)C(=O)N2 [Example 6, 6-methoxy-5-({6-[(1R,2S)-5′-methoxy-2′-oxo-1′,2′-dihydrospiro[cyclopropane-1,3′-indol]-2-yl]-1H-indazol-3-yl}amino)-1H-1-benzothiophene-1,1-dione]",0.952 nM,39.4 nM
"COc1ccc2c(c1)[C@]1(C[C@H]1c1ccc3c(Nc4cc(-c5cnn(C)c5)ccc4OC)n[nH]c3c1)C(=O)N2 [Example 11, (1R,2S)-5′-methoxy-2-{3-[2-methoxy-5-(1-methyl-1H-pyrazol-4-yl)anilino]-1H-indazol-6-yl}spiro[cyclopropane-1,3′-indol]-2′(1′H)-one]",0.52 nM,110 nM
"COc1ccc2c(c1)[C@]1(C[C@H]1c1ccc3c(Nc4nc(-c5ncco5)cnc4OC)n[nH]c3c1)C(=O)N2 [Example 19, (1R,2S)-5′-methoxy-2-(3-{[3-methoxy-6-(1,3-oxazol-2-yl)pyrazin-2-yl]amino}-1H-indazol-6-yl)spiro[cyclopropane-1,3′-indol]-2′(1′H)-one]",0.99 nM,170 nM
"COc1ccc2c(c1)[C@]1(C[C@H]1c1ccc3c(Nc4nc(N(C)C)ncc4OC)n[nH]c3c1)C(=O)N2 [Example 20, (1R,2S)-2-(3-{[2-(dimethylamino)-5-methoxypyrimidin-4-yl]amino}-1H-indazol-6-yl)-5′-methoxyspiro[cyclopropane-1,3′-indol]-2′(1′H)-one]",2.8 nM,440 nM

# Further lines, with some results ahead:
IC50 [2],SMILES,IC50 [1]
2.76 nM,"COc1ccc2c(c1)[C@]1(C[C@H]1c1ccc3c(Nc4ccc(C(C)=O)cc4OC)n[nH]c3c1)C(=O)N2 [Example 3, (1R,2S)-2-[3-(4-acetyl-2-methoxyanilino)-1H-indazol-6-yl]-5′-methoxyspiro[cyclopropane-1,3′-indol]-2′(1′H)-one]",308 nM
1.71 nM,"CCOc1cc(-c2cnccn2)ccc1Nc1n[nH]c2cc([C@@H]3C[C@@]34C(=O)Nc3ccc(OC)cc34)ccc12 [Example 7, (1R,2S)-2-{3-[2-ethoxy-4-(pyrazin-2-yl)anilino]-1H-indazol-6-yl}-5′-methoxyspiro[cyclopropane-1,3′-indol]-2′(1′H)-one]",166 nM
1.83 nM,"CCOc1cc2ccccc2nc1Nc1n[nH]c2cc([C@@H]3C[C@@]34C(=O)Nc3ccc(OC)cc34)ccc12 [Example 8, (1R,2S)-2-{3-[(3-ethoxyquinolin-2-yl)amino]-1H-indazol-6-yl}-5′-methoxyspiro[cyclopropane-1,3′-indol]-2′(1′H)-one]",490 nM
0.557 nM,"CCOc1cc(-n2cncn2)ccc1Nc1n[nH]c2cc([C@@H]3C[C@@]34C(=O)Nc3ccc(OC)cc34)ccc12 [Example 10, (1R,2S)-2-{3-[2-ethoxy-4-(1H-1,2,4-triazol-1-yl)anilino]-1H-indazol-6-yl}-5′-methoxyspiro[cyclopropane-1,3′-indol]-2′(1′H)-one]",120 nM
3.1 nM,"CCOc1cc2c(ccc[n+]2[O-])cc1Nc1n[nH]c2cc([C@@H]3C[C@@]34C(=O)Nc3ccc(OC)cc34)ccc12 [Example 12, 7-ethoxy-6-((6-((1R,2S)-5′-methoxy-2′-oxospiro[cyclopropane-1,3′-indolin]-2-yl)-1H-indazol-3-yl)amino)quinoline 1-oxide]",1100 nM
0.65 nM,"COc1ccc2c(c1)[C@]1(C[C@H]1c1ccc3c(Nc4cc(-c5ncco5)ccc4OC)n[nH]c3c1)C(=O)N2 [Example 13, (1R,2S)-5′-methoxy-2-{3-[2-methoxy-5-(1,3-oxazol-2-yl)anilino]-1H-indazol-6-yl}spiro[cyclopropane-1,3′-indol]-2′(1′H)-one]",348 nM
0.639 nM,"COc1ccc2c(c1)[C@]1(C[C@H]1c1ccc3c(Nc4cc(-c5nccs5)ccc4OC)n[nH]c3c1)C(=O)N2 [Example 14, (1R,2S)-5′-methoxy-2-{3-[2-methoxy-5-(1,3-thiazol-2-yl)anilino]-1H-indazol-6-yl}spiro[cyclopropane-1,3′-indol]-2′(1′H)-one]",88.7 nM
0.65 nM,"COc1ccc2c(c1)[C@]1(C[C@H]1c1ccc3c(Nc4cc(-c5cscn5)ccc4OC)n[nH]c3c1)C(=O)N2 [Example 15, (1R,2S)-5′-methoxy-2-{3-[2-methoxy-5-(1,3-thiazol-4-yl)anilino]-1H-indazol-6-yl}spiro[cyclopropane-1,3′-indol]-2′(1′H)-one]",93.8 nM
0.894 nM,"COc1ccc2c(c1)[C@]1(C[C@H]1c1ccc3c(Nc4cc(-c5cocn5)ccc4OC)n[nH]c3c1)C(=O)N2 [Example 16, (1R,2S)-5′-methoxy-2-{3-[2-methoxy-5-(1,3-oxazol-4-yl)anilino]-1H-indazol-6-yl}spiro[cyclopropane-1,3′-indol]-2′(1′H)-one]",160 nM
2 nM,"COc1ccc2c(c1)[C@]1(C[C@H]1c1ccc3c(Nc4ccc(-c5nnn(C)n5)cc4OC)n[nH]c3c1)C(=O)N2 [Example 17, (1R,2S)-5′-methoxy-2-{3-[2-methoxy-4-(2-methyl-2H-tetrazol-5-yl)anilino]-1H-indazol-6-yl}spiro[cyclopropane-1,3′-indol]-2′(1′H)-one]",370 nM
0.71 nM,"COc1ccc2c(c1)[C@]1(C[C@H]1c1ccc3c(Nc4cc(-c5cnco5)ccc4OC)n[nH]c3c1)C(=O)N2 [Example 18, (1R,2S)-5′-methoxy-2-{3-[2-methoxy-5-(1,3-oxazol-5-yl)anilino]-1H-indazol-6-yl}spiro[cyclopropane-1,3′-indol]-2′(1′H)-one]",170 nM
